Laboratory results: patent US8241680B2, “Nutraceutical product containing anatabine and yerba maté” (priority 2010, dated 2012)
Blank lines part the entries; values can stand above or below the compound they belong to.

Assays:
[1] = Stability analysis of Formula I (purity by HPLC on storage); assay type: physicochemical
Excerpt: Several batches of Formula I produced by reacting benzophenoneimine with aminomethylpyridine in the absence of benzene were stored refrigerated and also at room temperature.

[2] = Stability analysis of anatabine base with and without BHT as a preservative; assay type: physicochemical
Description: See, for example, Tables 3 and 4 in Examples 4 and 5, respectively. Purity of the anatabine may be retained for extended periods of time. […] Further, anatabine remains stable when stored at a variety of temperatures. For example, the anatabine retains the indicated purity when stored at −20° C. to −10° C., −20° C. to 0° C., −10° C. to 0° C., 0° C. to 4° C., 2° C. to 8° C., 5° C. to 10° C., 10° C. to 15° C., 15° C. to 25° C., or 25° C. to 28° C. Stability is determined by any suitable art-recognized method. For example, anatabine stability may be monitored by high performance liquid chromatography (HPLC), liquid chromatography-mass spectroscopy (LC-MS), or nuclear magnetic resonance (NMR).
Anatabine base stability was analyzed with and without BHT (3,5-di-tert-butyl-4-hydroxytoluene). The initial purity of BHT-free anatabine base was 94.95%. The initial purity of anatabine base with BHT was 94.87%.

- Purity (%) (stored at 2-8° C.) ([1]; day 1, 2-8° C.): 88.61%
- Purity (%) (stored at 25-28° C.) ([1]; day 1, 25-28° C.): 88.93%
- Purity (%) (stored at 2-8° C.) ([1]; day 2, 2-8° C.): 88.83%
- Purity (%) (stored at 25-28° C.) ([1]; day 2, 25-28° C.): 85.49%
- Purity (%) (stored at 2-8° C.) ([1]; day 3, 2-8° C.): 88.30%
- Purity (%) (stored at 25-28° C.) ([1]; day 3, 25-28° C.): 88.02%
- Purity (%) (stored at 2-8° C.) ([1]; day 6, 2-8° C.): 88.83%
- Purity (%) (stored at 25-28° C.) ([1]; day 6, 25-28° C.): 86.62%
- Purity (%) (stored at 2-8° C.) ([1]; day 12, 2-8° C.): 88.75%
- Purity (%) (stored at 25-28° C.) ([1]; day 12, 25-28° C.): 87.47%
- Purity (%) (stored at 2-8° C.) ([1]; day 18, 2-8° C.): 88.46%
- Purity (%) (stored at 25-28° C.) ([1]; day 18, 25-28° C.): 87.25%
- Purity on storage ([1]; refrigerated): constant
- Deviation of purity on storage ([1]; room temperature): 1-2%
SMILES: c1ccc(C(=NCc2cccnc2)c2ccccc2)cc1 [Formula I, benzylhydrylidene-pyridin-3-ylmethyl-amine]

SMILES: C1=CCC(c2cccnc2)NC1 (stereo not shown) [anatabine base, anatabine]
- Initial purity ([2]; BHT-free): 94.95%
- Purity (%) (with BHT) ([2]; day 1, 2-8° C., with BHT): 93.26%
- Purity (%) (without BHT) ([2]; day 1, 2-8° C.): 94.44%
- Purity (%) (with BHT) ([2]; day 1, 25-28° C., with BHT): 93.27%
- Purity (%) (without BHT) ([2]; day 1, 25-28° C.): 89.63%
- Purity (%) (with BHT) ([2]; day 1, −20° C., with BHT): 94.26%
- Purity (%) (without BHT) ([2]; day 1, −20° C.): 93.90%
- Purity (%) (with BHT) ([2]; day 2, 2-8° C., with BHT): 94.83%
- Purity (%) (without BHT) ([2]; day 2, 2-8° C.): 94.05%
- Purity (%) (with BHT) ([2]; day 2, 25-28° C., with BHT): 92.73%
- Purity (%) (without BHT) ([2]; day 2, 25-28° C.): 87.59%
- Purity (%) (with BHT) ([2]; day 2, −20° C., with BHT): 94.73%
- Purity (%) (without BHT) ([2]; day 2, −20° C.): 94.62%
- Purity (%) (with BHT) ([2]; day 3, 2-8° C., with BHT): 94.26%
- Purity (%) (without BHT) ([2]; day 3, 2-8° C.): 91.65%
- Purity (%) (with BHT) ([2]; day 3, 25-28° C., with BHT): 87.44%
- Purity (%) (without BHT) ([2]; day 3, 25-28° C.): 80.74%
- Purity (%) (with BHT) ([2]; day 3, −20° C., with BHT): 94.62%
- Purity (%) (without BHT) ([2]; day 3, −20° C.): 93.87%
- Purity (%) (with BHT) ([2]; day 12, 2-8° C., with BHT): 94.18%
- Purity (%) (without BHT) ([2]; day 12, 2-8° C.): 90.12%
- Purity (%) (with BHT) ([2]; day 12, 25-28° C., with BHT): 85.10%
- Purity (%) (without BHT) ([2]; day 12, 25-28° C.): 79.59%
- Purity (%) (with BHT) ([2]; day 12, −20° C., with BHT): 94.74%
- Purity (%) (without BHT) ([2]; day 12, −20° C.): 94.01%
- Initial purity ([2]; with BHT): 94.87%
